Key:
[1] = Caco-2 Permeability Assay; type: in vitro ADME; conditions: human; for efflux ratio at 120 min: Caco-2; for Papp A→B at 120 min: Caco-2, apical to basolateral; for Papp A→B at 120 min / Papp B→A at 120 min: 1-30 μM; for Papp B→A at 120 min: Caco-2, basolateral to apical
Procedure: Caco-2 cells are widely used as an in vitro assay to measure the permeability of a drug compound. The Caco-2 cell line is derived from a human colorectal carcinoma, and when cultured, the cells spontaneously differentiate into monolayers of polarized enterocytes. Caco-2 cells express P-glycoprotein and breast cancer resistance protein, two of the most relevant cell membrane active transporters that affect drug compound's permeability into cells and blood brain barrier.
The cells are seeded on Millipore Millicell plates and form a confluent monolayer over 20 days prior to the experiment. On day 20, the test compound (1-30 μM concentration) is added to the apical side of the membrane and the transport of the compound across the monolayer is monitored over a 120 minutes time period. To study drug efflux, it is also necessary to investigate transport of the compound from the basolateral compartment to the apical compartment.
The permeability coefficient (Papp) is calculated from the following equation: Papp=[(dQ/dt)/C0×A] where dQ/dt is the rate of permeation of the drug across the cells, C0 is the donor compartment concentration at time zero and A is the area of the cell monolayer. C0 is obtained from analysis of the dosing solution at the start experiment.

P-glycoprotein (MDR1) = assay: MDCK-MDR1 Permeability Assay; type: in vitro ADME, canine; conditions: dog; for efflux ratio at 120 min: MDCK-MDR1, Papp(B-A)/Papp(A-B); for Papp A→B at 120 min: MDCK-MDR1, apical to basolateral; for Papp A→B at 120 min / Papp B→A at 120 min: 1-30 μM; for Papp B→A at 120 min: MDCK-MDR1, basolateral to apical
Procedure: MDCK-MDR1 cells originate from transfection of Madin Darby canine kidney (MDCK) cells with the MDR1 gene, the gene encoding for the efflux protein, P-glycoprotein. This cell line is ideal for identifying substrates of P-gp, with or without an inhibitor. The cells are seeded on a Multiscreen™ plate to form a confluent monolayer over 4 days prior to the experiment. On day 4, the test compound (1-30 μM concentration) is added to the apical side of the membrane and the transport of the compound across the monolayer is monitored over a 120 minutes time period. To study drug efflux, it is also necessary to investigate transport of the compound from the basolateral compartment to the apical compartment and calculate an efflux ratio.
The permeability coefficient (Papp) is calculated from the following equation: Papp=[(dQ/dt)/C0×A] where dQ/dt is the rate of permeation of the drug across the cells, C0 is the donor compartment concentration at time zero and A is the area of the cell monolayer.
An efflux ratio is calculated from the mean apical to basolateral (A-B) Papp data and basolateral to apical (B-A) Papp data. Efflux Ratio=Papp(B−A)/Papp(A−B)

HT-29 colon cancer cells = assay: Antiproliferation assay in HT-29 cells by CellTiter Glo; type: cell-based; conditions: Homo sapiens, 72 hours or 144 hours
[2] = Mouse Pharmacokinetics Study; type: in vivo; conditions: CD-1 mice; for F / AUC / Cmax / Tmax: PO 25 mg/kg; for Vd / half-life / clearance / AUC / Cmax / Tmax: mouse, plasma; for Vd / half-life / clearance: IV 2.5 mg/kg; for half-life: 20% Hydroxypropyl-beta-cyclodextrin; for clearance: read-out: Clp
Description: The pharmacokinetic properties of selected compounds were studied CD-1 mice via intravenous and oral administration by using a standard protocol. The test articles were formulated in 20% Hydroxypropyl-beta-cyclodextrin, either as a clear solution or fine suspension.

A375 melanoma cells = assay: Antiproliferation assay in A375 cell line by CellTiter Glo; type: cell-based; conditions: Homo sapiens, A-375, 72 hours or 144 hours
Procedure: In vitro anti-proliferation study of test compounds in A375 cell line by CellTiter Glo. The cells were routinely maintained as a monolayer culture in corresponding culture medium, at 37° C. with 5% CO2 in air.
Harvest the exponential growth cells by trypsin-EDTA digestion. Re-suspend the cell pellet in fresh culture medium, and adjust the concentration to needed (the cell density per well was listed in following form). The cell viability is over 98% by Trypan blue staining. Inoculate cells into 96 wells plates according to the plate map (90 μL/well). Incubate the plates at 37° C. and 5% CO2 overnight. The next day, prepare the 10×compound containing medium according to the plate map. Transfer 10 μL of 10×compound containing medium into each well of the assay plates (the final DMSO concentration is 0.5%). Gently mix the medium and incubate at 37° C. and 5% CO2 for another 72 hours or 144 hours.
Prepare the reagent according to the manufacture's instruction. Add 50 μL CellTiter-Glo Reagent in each well. Mix contents for 2 minutes on an orbital shaker to induce cell lysis. Allow the plate to incubate at room temperature for 10 minutes to stabilize luminescent signal. Transfer 100 μL of reaction contents of each well from the clear plates into white walled/white opaque 96-well plates. Record the luminescence on Envision.
Using the luminescence measurements [time zero (T0), control growth (C), and test growth in the presence of drug at the six concentration levels (Ti)], the percentage growth is calculated at each of the drug concentrations levels.
Percentage growth inhibition (GI) is calculated as: GI (%)═[(Ti-T0)/(C-T0)]×100 for concentrations for which Ti>=T0, and GI (%)═[(Ti-T0)/T0]×100 for concentrations for which Ti<T0. Data were analyzed using the XLFit (Excel) tool, fitting to a 4-parameter equation to generate concentration response curves. Concentration of compound that inhibits 50% of control cell growth (GI50) was back-interpolated when y=50% of net growth of DMSO treated control wells using nonlinear regression with the equation: f(x) 205 [fit=(A+((B−A)/(1+((C/x)^))))], where A is the minimum response (Ymin), B is the maximum response (Ymax), C is the inflection point of the curve (Re GI50) and D is the Hill coefficient. Growth inhibition of 50% (GI50) was calculated at the 50% Growth inhibition on the curve. Index values were the sum of Inhibition rate (IR) at each tested compound concentration.

| Structure (SMILES) | efflux ratio at 120 min [1] | Papp A→B at 120 min [1] | Papp B→A at 120 min [1] | efflux ratio at 120 min (P-glycoprotein (MDR1)) | Papp A→B at 120 min (P-glycoprotein (MDR1)) | Papp B→A at 120 min (P-glycoprotein (MDR1)) | GI50 (HT-29 colon cancer cells) | F [2] | Vd [2] | half-life [2] | clearance [2] | AUC [2] | Cmax [2] | Tmax [2] | GI50 (A375 melanoma cells) |
| --- | --- | --- | --- | --- | --- | --- | --- | --- | --- | --- | --- | --- | --- | --- | --- |
| CCCS(=O)(=O)Nc1cccc(Oc2ccc3c(c2)C2=NCCN2C=N3)c1Cl [Compound 6, N-(2-Chloro-3-((2,3-dihydroimidazo[1,2-c]quinazolin-9-yl)oxy)phenyl)propane-1-sulfonamide] | 0.31 | 43.5 ×10⁻⁶ cm/s | 13.5 ×10⁻⁶ cm/s | 1.42 | 26.3 ×10⁻⁶ cm/s | 37.2 ×10⁻⁶ cm/s | 100 to 1000 nM | 58.9 ± 21.5% | 1.22 ± 0.16 L/kg | 28 ± 0.72 min | 30.3 ± 4.64 mL/min/kg | 8220 ± 3000 ng·h/mL | 4220 ± 1350 ng/mL | 15 min | < 100 nM |
| CCCS(=O)(=O)Nc1cccc(Oc2ccc3c(c2)C2=NCCCN2C=N3)c1Cl [Compound 21, N-(2-Chloro-3-((3,4-dihydro-2H-pyrimido[1,2-c]quinazolin-10-yl)oxy)phenyl)propane-1-sulfonamide] | 0.36 | 52.9 ×10⁻⁶ cm/s | 19.2 ×10⁻⁶ cm/s | 1.68 | 24.1 ×10⁻⁶ cm/s | 40.5 ×10⁻⁶ cm/s | < 100 nM | 113 ± 11.1% | 0.948 ± 0.166 L/kg | 72.6 ± 6 min | 9.03 ± 1.31 mL/min/kg | 53800 ± 5210 ng·h/mL | 11700 ± 2380 ng/mL | 30 min | < 100 nM |
